Test results: ChEMBL document CHEMBL1154257, “Prediction of telomerase inhibitory activity for acridinic derivatives based on chemical structure” (Eur J Med Chem, 2009)

Molecular target: Telomerase reverse transcriptase (Homo sapiens, UniProt O14746)
Experiment: Inhibition of telomerase in human A2780 cells by TRAP assay
Type: cell-based

Telomerase reverse transcriptase, sequence (O14746 whole entry): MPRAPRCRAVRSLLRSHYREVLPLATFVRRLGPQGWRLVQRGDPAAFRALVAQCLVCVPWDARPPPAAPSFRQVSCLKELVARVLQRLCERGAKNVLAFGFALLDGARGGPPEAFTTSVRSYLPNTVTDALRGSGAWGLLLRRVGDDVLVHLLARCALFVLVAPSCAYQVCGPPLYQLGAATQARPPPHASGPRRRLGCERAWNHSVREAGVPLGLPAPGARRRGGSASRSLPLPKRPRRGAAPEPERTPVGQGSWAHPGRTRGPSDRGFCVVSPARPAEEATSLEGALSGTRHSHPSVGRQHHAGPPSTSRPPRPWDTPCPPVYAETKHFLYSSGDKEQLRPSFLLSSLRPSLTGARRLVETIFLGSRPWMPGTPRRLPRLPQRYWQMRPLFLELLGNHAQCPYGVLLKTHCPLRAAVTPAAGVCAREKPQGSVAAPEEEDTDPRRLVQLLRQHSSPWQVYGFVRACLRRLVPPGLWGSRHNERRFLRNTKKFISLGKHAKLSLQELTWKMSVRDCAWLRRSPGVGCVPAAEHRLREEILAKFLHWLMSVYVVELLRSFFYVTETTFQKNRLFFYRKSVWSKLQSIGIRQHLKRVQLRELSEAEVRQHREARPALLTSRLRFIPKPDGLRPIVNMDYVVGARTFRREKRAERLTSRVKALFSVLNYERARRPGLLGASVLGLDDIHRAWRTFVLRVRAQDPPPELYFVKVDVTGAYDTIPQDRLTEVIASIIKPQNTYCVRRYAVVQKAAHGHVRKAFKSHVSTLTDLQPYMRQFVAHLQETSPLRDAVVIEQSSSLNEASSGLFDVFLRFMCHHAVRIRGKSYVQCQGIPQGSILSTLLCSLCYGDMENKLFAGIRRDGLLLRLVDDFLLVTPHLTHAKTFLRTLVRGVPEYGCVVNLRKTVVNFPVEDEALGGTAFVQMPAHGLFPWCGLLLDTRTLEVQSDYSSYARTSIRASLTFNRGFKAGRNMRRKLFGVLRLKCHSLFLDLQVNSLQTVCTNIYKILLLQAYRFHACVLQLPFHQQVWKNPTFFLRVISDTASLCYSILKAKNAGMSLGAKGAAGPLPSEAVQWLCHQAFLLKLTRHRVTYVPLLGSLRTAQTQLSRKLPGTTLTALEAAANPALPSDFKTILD

| IC50 [nM] | Compound |
| --- | --- |
| 570 | CN(C)CCNc1c2cc(NC(=O)CCN3CCCC3)ccc2nc2ccc(NC(=O)CCN3CCCC3)cc12 |
| 210 | O=C(CCN1CCCC1)Nc1ccc2c(NC3CCCCC3)c3cc(NC(=O)CCN4CCCC4)ccc3nc2c1 |
| 1290 | O=C(CCN1CCCC1)Nc1ccc2nc3ccc(NC(=O)CCN4CCCC4)cc3c(Nc3ccccc3)c2c1 |
| 1090 | Nc1cccc(Nc2c3cc(NC(=O)CCN4CCCC4)ccc3nc3ccc(NC(=O)CCN4CCCC4)cc23)c1 |
| 270 | CN(C)CCNc1c2ccc(NC(=O)CCN3CCCC3)cc2nc2ccc(NC(=O)CCN3CCCC3)cc12 |
| 460 | COc1ccc(Nc2c3cc(NC(=O)CCN4CCCC4)ccc3nc3ccc(NC(=O)CCN4CCCC4)cc23)cc1 |
| 200 | Nc1ccc(Nc2c3cc(NC(=O)CCN4CCCC4)ccc3nc3ccc(NC(=O)CCN4CCCC4)cc23)cc1 |
| 1700 | CC1CCN(CCC(=O)Nc2ccc3c(=O)c4ccc(NC(=O)CCN5CCC(C)CC5)cc4[nH]c3c2)CC1 |
| 400 | O=C(CCN1CCCCC1)Nc1ccc2c(O)c3cc(NC(=O)CCN4CCCCC4)ccc3nc2c1 |
| 200 | O=C(CCN1CCC(O)CC1)Nc1ccc2c(O)c3cc(NC(=O)CCN4CCC(O)CC4)ccc3nc2c1 |
| 1900 | O=C(CCN1CCCCC1)Nc1ccc2nc3ccc(NC(=O)CCN4CCCCC4)cc3c(O)c2c1 |
| 1500 | CC1CCCCN1CCC(=O)Nc1ccc2nc3ccc(NC(=O)CCN4CCCCC4C)cc3c(O)c2c1 (stereo unspecified) |
| 5800 | O=C(CCN1CCCC1)Nc1ccc2nc3ccc(NC(=O)CCN4CCCC4)cc3c(O)c2c1 |
| 2730 | COc1cccc(Nc2c3cc(NC(=O)CCN4CCCC4)ccc3nc3ccc(NC(=O)CCN4CCCC4)cc23)c1 |
| 1030 | O=C(CCN1CCCC1)Nc1ccc2nc3ccc(NC(=O)CCN4CCCC4)cc3c(Nc3ccccc3O)c2c1 |
| 170 | Nc1ccccc1Nc1c2cc(NC(=O)CCN3CCCC3)ccc2nc2ccc(NC(=O)CCN3CCCC3)cc12 |
| 200 | CC1CCN(CCC(=O)Nc2ccc3c(O)c4cc(NC(=O)CCN5CCC(C)CC5)ccc4nc3c2)CC1 |
| 2300 | O=C(CCN1CCC(O)CC1)Nc1ccc2nc3ccc(NC(=O)CCN4CCC(O)CC4)cc3c(O)c2c1 |
| 1700 | O=C(CCN1CCC(O)CC1)Nc1ccc2c(O)c3ccc(NC(=O)CCN4CCC(O)CC4)cc3nc2c1 |

Second part, the compound before the results:

| Compound | IC50 [nM] |
| --- | --- |
| CC1(C)CC2CN(CCC(=O)Nc3ccc4cc5ccc(NC(=O)CCN6CC7CC(C)(C)CC(C)(C7)C6)cc5nc4c3)CC(C)(C2)C1 | > 50000 |
| CN(C)CCCNc1c2ccc(NC(=O)CCN3CCCC3)cc2nc2ccc(NC(=O)CCN3CCCC3)cc12 | 80 |
| CN(C)c1ccc(Nc2c3ccc(NC(=O)CCN4CCCC4)cc3nc3ccc(NC(=O)CCN4CCCC4)cc23)cc1 | 170 |
| CN(C)c1cccc(Nc2c3cc(NC(=O)CCN4CCCC4)ccc3nc3ccc(NC(=O)CCN4CCCC4)cc23)c1 | 600 |
| O=C(CCN1CCCC1)Nc1ccc2c(Nc3ccccc3)c3cc(NC(=O)CCN4CCCC4)ccc3nc2c1 | 1330 |
| O=C(CCCCC(=O)N1CCCC1)Nc1ccc(Nc2c3ccc(NC(=O)CCN4CCCC4)cc3nc3cc(NC(=O)CCN4CCCC4)ccc23)cc1 | 318 |
| CCN(CC)CCCCCCNC(=O)CCCCC(=O)Nc1ccc(Nc2c3ccc(NC(=O)CCN4CCCC4)cc3nc3cc(NC(=O)CCN4CCCC4)ccc23)cc1 | 80 |
| CC1CCCCN1CCC(=O)Nc1ccc2c(=O)c3ccc(NC(=O)CCN4CCCCC4C)cc3[nH]c2c1 (stereo unspecified) | 2300 |
| CCN(CC)CCNC(=O)CCCCC(=O)Nc1ccc(Nc2c3ccc(NC(=O)CCN4CCCC4)cc3nc3cc(NC(=O)CCN4CCCC4)ccc23)cc1 | 98 |
| CCC1CCCCN1CCC(=O)Nc1ccc2c(=O)c3ccc(NC(=O)CCN4CCCCC4CC)cc3[nH]c2c1 (stereo unspecified) | 2300 |
| O=C(CCN1CCCC1)Nc1ccc2c(=O)c3ccc(NC(=O)CCN4CCCC4)cc3[nH]c2c1 | 8100 |
| CCN(CC)CCC(=O)Nc1ccc2c(O)c3cc(NC(=O)CCN(CC)CC)ccc3nc2c1 | 700 |
| CN(C)CCC(=O)Nc1ccc2nc3ccc(NC(=O)CCN(C)C)cc3c(O)c2c1 | 600 |
| Nc1ccc(Nc2c3ccc(NC(=O)CCN4CCCC4)cc3nc3cc(NC(=O)CCN4CCCC4)ccc23)cc1 | 74 |
| CN(C)c1ccc(Nc2c3ccc(NC(=O)CCN4CCCC4)cc3nc3cc(NC(=O)CCN4CCCC4)ccc23)cc1 | 100 |
| CN(C)c1ccc(Nc2c3cc(NC(=O)CCN4CCCC4)ccc3nc3ccc(NC(=O)CCN4CCCC4)cc23)cc1 | 500 |
| Nc1cccc(Nc2c3ccc(NC(=O)CCN4CCCC4)cc3nc3ccc(NC(=O)CCN4CCCC4)cc23)c1 | 210 |
| Nc1ccccc1Nc1c2ccc(NC(=O)CCN3CCCC3)cc2nc2ccc(NC(=O)CCN3CCCC3)cc12 | 110 |
| CCN(CC)CCC(=O)Nc1ccc2c(=O)c3ccc(NC(=O)CCN(CC)CC)cc3[nH]c2c1 | 2700 |
| C[N+]1(CCC(=O)Nc2ccc3nc4ccc(NC(=O)CC[N+]5(C)CCNCC5)cc4c(O)c3c2)CCNCC1 | 1900 |
| O=C(CCN1CCCCC1CCO)Nc1ccc2c(=O)c3cc(NC(=O)CCN4CCCCC4CCO)ccc3[nH]c2c1 (stereo unspecified) | 200 |
| O=C(CC[N+]1([O-])CCCCC1)Nc1ccc2c(=O)c3ccc(NC(=O)CC[N+]4([O-])CCCCC4)cc3[nH]c2c1 | 49000 |
